Literature values in patent US6623768B1, “Pharmaceutically active composition extracted from Ferula hermonis and process of its extraction” (priority 2002, dated 2003).

Tested on: adult female rats

For `COc1cc(C(=O)O[C@H]2CC(C)=CC[C@@]3(C)CC[C@@](O)(C(C)C)[C@H]23)ccc1O` [jaeschkeanadiol vanillate], the prevention of pregnancy (administered orally on 1 to 7 post coitum, adult female rats) is given as “prevent pregnancy” and the “prevention of pregnancy after single dose” value (single oral administration of 5 mg per kg on the first day of post coitum, rats) is given as “prevented pregnancy”.
